According to US10858360B2, “Tricyclic gyrase inhibitors” (priority 2011, dated 2020):
Converted amounts (≈) assume the structure as drawn.

Assays:
S. aureus ATCC 13709 = assay: MIC, S. aureus ATCC 13709 (Alamar Blue broth microdilution); format: cell-based; details: Alamar Blue read after overnight incubation at 35° C.; for MIC: Staphylococcus aureus, ATCC13709, S. aureus; for MIC Sa: S. aureus
E. coli ATCC 25922 = assay: MIC, E. coli ATCC 25922; format: cell-based; details: Alamar Blue read after overnight incubation at 35° C.; for MIC: Escherichia coli, ATCC25922, E. coli; for MIC Ec: E. coli

Compound | MIC (S. aureus ATCC 13709) [µg/mL] | MIC (E. coli ATCC 25922) [µg/mL] | MIC Sa (S. aureus ATCC 13709) [µg/mL] | MIC Ec (E. coli ATCC 25922) [µg/mL]
CNc1cc(F)cc2c1[nH]c1nc(Oc3cnc(N)nc3)nc(N3C4CCC3CC(N)C4)c12 (stereo not shown) [4.183] | 1 (≈ 2.22 µM) | 8 (≈ 17.8 µM) | – | –
CNc1cc(F)cc2c1[nH]c1nc(Oc3cnc4c(c3)ncn4C3CC3)nc(N3CC4C[C@@H](N)C4C3)c12 (stereo partly shown) [4.363] | ≤ 0.5 | 1 (≈ 2 µM) | – | –
CNc1cc(F)cc2c1[nH]c1nc(Oc3cnc(C#N)c(C)c3)nc(N3CC4CC3C[C@@H]4N)c12 (stereo partly shown) [4.435] | ≤ 0.5 | ≤ 0.5 | – | –
COc1cccc2c1[nH]c1nc(Sc3cnc4ccc[n+]([O-])c4c3)nc(N3CC[C@@H](N)C3)c12 [1.78] | ≤ 0.5 | 64 (≈ 139 µM) | – | –
CNc1cc(F)cc2c1[nH]c1nc(Oc3cnc(C4CC4)nc3)nc(N3CC4C(N)C4C3)c12 (stereo not shown) [4.241] | – | – | ≤0.5 | ≤0.5
CNNc1cc(F)cc2c1[nH]c1nc(Oc3cnc(C)nc3)nc(N3CC4C(N)C4C3)c12 (stereo not shown) [2.1] | – | – | ≤0.5 | >16
CNc1cccc2c1[nH]c1nc(Oc3cncnc3)nc(N3C[C@H](NCC4CC4)C4(CC4)C3)c12 [3.12] | 1 (≈ 2.19 µM) | 8 (≈ 17.5 µM) | – | –
CNc1cc(F)cc2c1[nH]c1nc(Oc3cnc(CO)nc3)nc(N3CC(N)C4(CC4)C3)c12 (stereo not shown) [4.387] | – | – | ≤0.5 | ≤0.5
CNc1cc(F)cc2c1[nH]c1nc(Oc3cncnc3)nc(N3CC(N)C4(CC4)C3)c12 (stereo not shown) [4.002] | ≤ 0.5 | ≤ 0.5 | – | –
CNc1cc(F)cc2c1[nH]c1nc(Oc3cnc(C)nc3)nc(N3CC4CC3CC4N)c12 (stereo not shown) [4.129] | – | – | ≤0.5 | ≤0.5
CNc1ncnc2c1[nH]c1nc(Oc3cnc(C)nc3)nc(N3CCC4(CC4N)C3)c12 (stereo not shown) [7.09] | 8 (≈ 19.1 µM) | > 64 | – | –
CNc1cc(F)cc2c1[nH]c1nc(Oc3cnc(C)nc3)nc(N3CCC4(CCC4N)CC3)c12 (stereo not shown) [4.139] | – | – | ≤0.5 | ≤0.5
CNc1cc(F)cc2c1[nH]c1nc(Oc3cncc(Br)c3)nc(N3CC4CC(N)C4C3)c12 (stereo not shown) [4.283] | – | – | ≤0.5 | ≤0.5
CNc1cc(F)cc2c1[nH]c1nc(Oc3cnc(SC)nc3)nc(N3CCC4(CC4N)C3)c12 (stereo not shown) [4.195] | ≤ 0.5 | 1 (≈ 2.14 µM) | – | –
CNc1cccc2c1[nH]c1nc(Oc3cncnc3)nc(N3CCC4(CNC4)C3)c12 [3.65] | 8 (≈ 19.9 µM) | 64 (≈ 159 µM) | – | –
CNc1cc(F)cc2c1[nH]c1nc(Oc3ccc4c(c3)C(=O)NC4)nc(N3CC4CCNC4C3)c12 (stereo not shown) [4.269] | – | – | ≤0.5 | 4 (≈ 8.45 µM)

Compound | MIC (S. aureus ATCC 13709) [µg/mL] | MIC (E. coli ATCC 25922) [µg/mL] | MIC Sa (S. aureus ATCC 13709) [µg/mL] | MIC Ec (E. coli ATCC 25922) [µg/mL]
CNc1cc(F)cc2c1[nH]c1nc(Oc3cnc(C)nc3)nc(N3CC4CCNC4C3)c12 (stereo not shown) [4.094] | – | – | ≤0.5 | ≤0.5
CNc1ccc(C)c2c1[nH]c1nc(Sc3cnc4ccc[n+]([O-])c4c3)nc(N3CC4C(N)C4C3)c12 (stereo not shown) [1.73] | ≤ 0.5 | 8 (≈ 16.5 µM) | – | –
CNc1cc(F)cc2c1[nH]c1nc(Oc3cnc(CCO)nc3)nc(N3CC4CC3C[C@@H]4N)c12 (stereo partly shown) [4.428] | – | – | ≤0.5 | 2 (≈ 4.31 µM)
Cc1cc(F)cc2c1[nH]c1nc(Oc3cncnc3)nc(N3CC4C(N)C4C3)c12 (stereo not shown) [2.7] | 4 (≈ 10.2 µM) | > 16 | – | –
COc1cccc2c1[nH]c1nc(Oc3cccc(C#N)c3)nc(N3CC4C(N)C4C3)c12 (stereo not shown) [2.12] | – | – | 16 (≈ 38.8 µM) | >64
CNc1cc(F)cc2c1[nH]c1nc(Oc3cnc(C)nc3)nc(N3CCC4(CCNC4)C3)c12 (stereo not shown) [4.126] | – | – | ≤0.5 | 2 (≈ 4.46 µM)
CNc1cc(F)cc2c1[nH]c1nc(Oc3cncnc3)nc(N3CC4CNC(C4)C3)c12 (stereo not shown) [4.015] | ≤ 0.5 | 1 (≈ 2.38 µM) | – | –
COc1cccc2c1[nH]c1nc(Oc3cncnc3)nc(N3CCC(N)C3)c12 (stereo not shown) [2.10] | – | – | 2 (≈ 5.3 µM) | 32 (≈ 84.8 µM)
CNc1cccc2c1[nH]c1nc(Sc3cc4ncccc4[n+]([O-])c3)nc(N3C[C@@H]4[C@@H](N)[C@@H]4C3)c12 [1.31] | ≤ 0.5 | ≤ 0.5 | – | –
CNc1cccc2c1[nH]c1nc(Oc3cncc(F)c3)nc(N3CC[C@@H](N)C3)c12 [3.6] | 0.5 (≈ 1.27 µM) | 1 (≈ 2.54 µM) | – | –
CNc1cc(F)cc2c1[nH]c1nc(Oc3cnc(C(C)O)nc3)nc(C3CC4(CC[C@H]4N)C3)c12 (stereo partly shown) [4.430] | ≤ 0.5 | ≤ 0.5 | – | –
CNc1cccc2c1[nH]c1nc(Oc3cncc(C#N)c3)nc(N3CC[C@@H](N)C3)c12 [3.3] | 0.5 (≈ 1.25 µM) | 1 (≈ 2.5 µM) | – | –
CNc1cc(F)cc2c1[nH]c1nc(Oc3cnc(N)nc3)nc(N3CCC(N)C3)c12 (stereo not shown) [4.179] | – | – | ≤0.5 | 1 (≈ 2.44 µM)
CNc1cc(F)cc2c1[nH]c1nc(Oc3cncc(-c4cn[nH]c4)c3)nc(N3CC4C(N)C4C3)c12 (stereo not shown) [4.206] | ≤ 0.5 | 4 (≈ 8.48 µM) | – | –
CNc1cc(F)cc2c1[nH]c1nc(Oc3cnc(C)nc3)nc(N3C4CCC3C(N)C4)c12 (stereo not shown) [4.095] | – | – | 2 (≈ 4.6 µM) | 8 (≈ 18.4 µM)
CNc1cc(F)cc2c1[nH]c1nc(Oc3cnc4[nH]cnc4c3)nc(N3CC4C(N)C4C3)c12 (stereo not shown) [4.311] | 4 (≈ 8.98 µM) | > 16 | – | –
